Measured values: ChEMBL document CHEMBL4311985, “Novel virosecurinine bivalent mimetics as potent reversal agents against P-glycoprotein-mediated multidrug resistance” (Eur J Med Chem, 2019)
One block for each compound: values may come before it. Activity calls are given as the source filed them. The calls are words filed in the database; no cut-off is given here.

Assays:
[1] = Cytotoxicity against human MCF7/ADM cells assessed as reduction in cell viability at 10 uM measured after 48 hrs by MTT assay; format: cell-based
[2] = biological target: T1, ATP-dependent translocase ABCB1 (Homo sapiens, UniProt P08183); assay: Reversal of P-gp mediated multidrug resistance in human MCF7/ADM cells assessed as potentiation of doxorubicin-induced cell growth inhibition at 10 uM measured after 48 hrs by MTT assay (reference value: 5%); format: cell-based
[3] = biological target: T1, ATP-dependent translocase ABCB1; assay: Reversal of P-gp mediated multidrug resistance in human HepG2/Dox cells assessed as potentiation of doxorubicin-induced cell growth inhibition at 10 uM measured after 48 hrs by MTT assay (reference value: 24%); format: cell-based
[4] = Cytotoxicity against human HepG2/DOX cells assessed as reduction in cell viability at 10 uM measured after 48 hrs by MTT assay; format: cell-based
[5] = Toxicity in spleen of BALB/c nude mouse xenografted with human HepG2/Dox cells assessed as blood extravasation at 25 mg/kg, iv cotreated with doxorubicin every 3rd day for 12 days by hematoxylin and eosin staining based assay; format: organism-based; conditions: in vivo, 288 h
[6] = Cytotoxicity against human AC16 cells assessed as cell survival at 50 uM measured after 72 hrs by MTT assay relative to control; format: cell-based; conditions: read-out: Activity
[7] = Toxicity in spleen of BALB/c nude mouse xenografted with human HepG2/Dox cells assessed as inflammation at 25 mg/kg, iv cotreated with doxorubicin every 3rd day for 12 days by hematoxylin and eosin staining based assay; format: organism-based; conditions: in vivo, 288 h
[8] = biological target: T1, ATP-dependent translocase ABCB1; assay: Reversal of P-gp mediated multidrug resistance in human MCF7/ADM cells assessed as potentiation of doxorubicin-induced cytotoxicity at 5 to 10 uM by MTT assay; format: cell-based; conditions: TDE = time-dependent effect
[9] = Cardiotoxicity in BALB/c nude mouse xenografted with human HepG2/Dox cells assessed as effect on myocardial cells at 25 mg/kg, ip administered daily by hematoxylin and eosin staining based assay; format: toxicity, organism-based; conditions: in vivo
[10] = biological target: T1, ATP-dependent translocase ABCB1; assay: Inhibition of P-gp mediated doxorubicin efflux in human MCF7/ADM cells at 5 to 10 uM preincubated for 4 hrs followed by co-incubation with doxorubicin for 2 hrs followed by doxorubicin wash-out and measured after 120 mins incubation with drug containing culture medium by fluorescence based analysis; format: cell-based
Homo sapiens [11] = species on record: Homo sapiens; assay: Effect on P-gp expression in human HepG2/Dox cells at 5 to 10 uM measured after 48 hrs by Western blot analysis; format: functional, cell-based
[12] = biological target: T1, ATP-dependent translocase ABCB1; assay: Inhibition of P-gp mediated doxorubicin efflux in human HepG2/Dox cells at 5 to 10 uM preincubated for 4 hrs followed by co-incubation with doxorubicin for 2 hrs followed by doxorubicin wash-out and measured after 120 mins incubation with drug containing culture medium by fluorescence based analysis; format: cell-based
[13] = biological target: T1, ATP-dependent translocase ABCB1; assay: Reversal of P-gp mediated drug efflux in human MCF7/ADM cells assessed as increase in intracellular Rhodamine123 accumulation at 10 uM preincubated for 4 hrs followed by Rh123 addition measured after 1 hr incubation by fluorescence microscopic analysis; format: cell-based
[14] = biological target: T1, ATP-dependent translocase ABCB1; assay: Stimulation of P-gp ATPase activity (unknown origin) at 5 to 10 uM incubated for 40 mins by P-gp-Glo luminescence assay
[15] = Cardiotoxicity in BALB/c nude mouse xenografted with human HepG2/Dox cells assessed as effect on doxorubicin-induced myocardial cell enlargement at 25 mg/kg, iv cotreated with doxorubicin every 3rd day for 12 days by hematoxylin and eosin staining based assay; format: toxicity, organism-based; conditions: in vivo, 288 h
[16] = Cytotoxicity against human HepG2/DOX cells assessed as cell viability at 10 uM measured after 48 hrs by MTT assay relative to control; format: cell-based; conditions: read-out: Activity
[17] = biological target: T1, ATP-dependent translocase ABCB1; assay: Reversal of P-gp mediated drug efflux in human MCF7/ADM cells assessed as increase in intracellular doxorubicin accumulation at 10 uM preincubated for 4 hrs followed by doxorubicin addition measured after 1 hr incubation by fluorescence microscopic analysis; format: cell-based
[18] = biological target: T1, ATP-dependent translocase ABCB1; assay: Reversal of P-gp mediated multidrug resistance in human HepG2/DOX cells assessed as potentiation of doxorubicin-induced cytotoxicity at 5 to 10 uM by MTT assay; format: cell-based; conditions: TDE = time-dependent effect
[19] = Toxicity in lung of BALB/c nude mouse xenografted with human HepG2/Dox cells at 25 mg/kg, ip administered daily by hematoxylin and eosin staining based assay; format: organism-based; conditions: in vivo
[20] = biological target: T1, ATP-dependent translocase ABCB1; assay: Reversal of P-gp mediated multidrug resistance in human MCF7/ADM cells assessed as fold reduction in doxorubicin IC50 at 10 uM measured within 48 hrs by MTT assay relative to control; format: cell-based
[21] = biological target: T1, ATP-dependent translocase ABCB1; assay: Reversal of P-gp mediated drug efflux in human HepG2/Dox cells assessed as increase in intracellular doxorubicin accumulation at 5 to 10 uM preincubated for 4 hrs followed by doxorubicin addition measured after 1 hr incubation by flow cytometry analysis; format: cell-based
[22] = Toxicity in liver of BALB/c nude mouse xenografted with human HepG2/Dox cells at 25 mg/kg, iv cotreated with doxorubicin every 3rd day for 12 days by hematoxylin and eosin staining based assay; format: organism-based; conditions: in vivo, 288 h
Homo sapiens [23] = species on record: Homo sapiens; assay: Effect on P-gp expression in human MCF7/ADM cells at 5 to 10 uM measured after 48 hrs by Western blot analysis; format: functional, cell-based
Homo sapiens [24] = assay: In vivo reversal of P-gp mediated drug resistance in human HepG2/Dox cells xenografted in BALB/c nude mouse assessed as tumour growth at 25 mg/kg, ip administered daily; format: functional, organism-based
[25] = biological target: T1, ATP-dependent translocase ABCB1; assay: Reversal of P-gp mediated drug efflux in human HepG2/Dox cells assessed as increase in intracellular doxorubicin accumulation at 10 uM preincubated for 4 hrs followed by doxorubicin addition measured after 1 hr incubation by fluorescence microscopic analysis; format: cell-based
[26] = Toxicity in BALB/c nude mouse xenografted with human HepG2/Dox cells assessed as effect on doxorubicin-induced body weight decline at 25 mg/kg, iv coadministered with doxorubicin every 3rd day for 12 days; format: organism-based; conditions: in vivo, 288 h
[27] = Toxicity in liver of BALB/c nude mouse xenografted with human HepG2/Dox cells at 25 mg/kg, ip administered daily by hematoxylin and eosin staining based assay; format: organism-based; conditions: in vivo
[28] = biological target: T1, ATP-dependent translocase ABCB1; assay: Reversal of P-gp mediated multidrug resistance in human HepG2/DOX cells assessed as potentiation of taxol-induced cytotoxicity at 5 to 10 uM by MTT assay; format: cell-based; conditions: TDE = time-dependent effect
[29] = biological target: T1, ATP-dependent translocase ABCB1; assay: Reversal of P-gp mediated drug efflux in human HepG2/Dox cells assessed as increase in intracellular Rhodamine123 accumulation at 10 uM preincubated for 4 hrs followed by Rh123 addition measured after 1 hr incubation by fluorescence microscopic analysis; format: cell-based
Homo sapiens [30] = assay: In vivo reversal of P-gp mediated drug resistance in human HepG2/Dox cells xenografted in BALB/c nude mouse assessed as reduction in tumour growth at 25 mg/kg, iv co-administered with doxorubicin every 3rd day for 12 days; format: functional, organism-based
MCF7 = assay: Cytotoxicity against human MCF7 cells assessed as cell viability at 5 to 50 uM measured after 48 hrs by MTT assay; format: cell-based; conditions: mcf7, 48 h
[31] = Cytotoxicity against human MCF7/ADM cells assessed as cell viability at 10 uM measured after 48 hrs by MTT assay relative to control; format: cell-based; conditions: read-out: Activity
[32] = biological target: T1, ATP-dependent translocase ABCB1; assay: Reversal of P-gp mediated multidrug resistance in human HepG2/DOX cells assessed as fold reduction in doxorubicin IC50 at 10 uM measured within 48 hrs by MTT assay relative to control; format: cell-based
[33] = Toxicity in kidney of BALB/c nude mouse xenografted with human HepG2/Dox cells at 25 mg/kg, ip administered daily by hematoxylin and eosin staining based assay; format: organism-based; conditions: in vivo
[34] = Toxicity in lung of BALB/c nude mouse xenografted with human HepG2/Dox cells at 25 mg/kg, iv cotreated with doxorubicin every 3rd day for 12 days by hematoxylin and eosin staining based assay; format: organism-based; conditions: in vivo, 288 h
[35] = biological target: T1, ATP-dependent translocase ABCB1; assay: Reversal of P-gp mediated drug efflux in human HepG2/Dox cells assessed as increase in intracellular Rhodamine123 accumulation at 5 to 10 uM preincubated for 4 hrs followed by Rh123 addition measured after 1 hr incubation by flow cytometry analysis; format: cell-based
[36] = biological target: T1, ATP-dependent translocase ABCB1; assay: Reversal of P-gp mediated multidrug resistance in human MCF7/ADM cells assessed as fold reduction in doxorubicin IC50 at 5 uM measured within 48 hrs by MTT assay relative to control; format: cell-based
HepG2 = assay: Cytotoxicity against human HepG2 cells assessed as cell viability at 5 to 50 uM measured after 48 hrs by MTT assay; format: cell-based; conditions: hepg2, 48 h
[37] = Toxicity in BALB/c nude mouse xenografted with human HepG2/Dox cells assessed as effect on body weight at 25 mg/kg, ip administered daily; format: organism-based; conditions: in vivo
[38] = Toxicity in kidney of BALB/c nude mouse xenografted with human HepG2/Dox cells at 25 mg/kg, iv cotreated with doxorubicin every 3rd for 12 days by hematoxylin and eosin staining based assay; format: organism-based; conditions: in vivo, 288 h
[39] = biological target: T1, ATP-dependent translocase ABCB1; assay: Reversal of P-gp mediated multidrug resistance in human MCF7/ADM cells assessed as potentiation of doxorubicin-induced cell growth inhibition at 10 uM measured after 48 hrs by MTT assay; format: cell-based
[40] = biological target: T1, ATP-dependent translocase ABCB1; assay: Reversal of P-gp mediated multidrug resistance in human HepG2/Dox cells assessed as potentiation of doxorubicin-induced cell growth inhibition at 10 uM measured after 48 hrs by MTT assay; format: cell-based

T1 sequence (P08183 whole entry): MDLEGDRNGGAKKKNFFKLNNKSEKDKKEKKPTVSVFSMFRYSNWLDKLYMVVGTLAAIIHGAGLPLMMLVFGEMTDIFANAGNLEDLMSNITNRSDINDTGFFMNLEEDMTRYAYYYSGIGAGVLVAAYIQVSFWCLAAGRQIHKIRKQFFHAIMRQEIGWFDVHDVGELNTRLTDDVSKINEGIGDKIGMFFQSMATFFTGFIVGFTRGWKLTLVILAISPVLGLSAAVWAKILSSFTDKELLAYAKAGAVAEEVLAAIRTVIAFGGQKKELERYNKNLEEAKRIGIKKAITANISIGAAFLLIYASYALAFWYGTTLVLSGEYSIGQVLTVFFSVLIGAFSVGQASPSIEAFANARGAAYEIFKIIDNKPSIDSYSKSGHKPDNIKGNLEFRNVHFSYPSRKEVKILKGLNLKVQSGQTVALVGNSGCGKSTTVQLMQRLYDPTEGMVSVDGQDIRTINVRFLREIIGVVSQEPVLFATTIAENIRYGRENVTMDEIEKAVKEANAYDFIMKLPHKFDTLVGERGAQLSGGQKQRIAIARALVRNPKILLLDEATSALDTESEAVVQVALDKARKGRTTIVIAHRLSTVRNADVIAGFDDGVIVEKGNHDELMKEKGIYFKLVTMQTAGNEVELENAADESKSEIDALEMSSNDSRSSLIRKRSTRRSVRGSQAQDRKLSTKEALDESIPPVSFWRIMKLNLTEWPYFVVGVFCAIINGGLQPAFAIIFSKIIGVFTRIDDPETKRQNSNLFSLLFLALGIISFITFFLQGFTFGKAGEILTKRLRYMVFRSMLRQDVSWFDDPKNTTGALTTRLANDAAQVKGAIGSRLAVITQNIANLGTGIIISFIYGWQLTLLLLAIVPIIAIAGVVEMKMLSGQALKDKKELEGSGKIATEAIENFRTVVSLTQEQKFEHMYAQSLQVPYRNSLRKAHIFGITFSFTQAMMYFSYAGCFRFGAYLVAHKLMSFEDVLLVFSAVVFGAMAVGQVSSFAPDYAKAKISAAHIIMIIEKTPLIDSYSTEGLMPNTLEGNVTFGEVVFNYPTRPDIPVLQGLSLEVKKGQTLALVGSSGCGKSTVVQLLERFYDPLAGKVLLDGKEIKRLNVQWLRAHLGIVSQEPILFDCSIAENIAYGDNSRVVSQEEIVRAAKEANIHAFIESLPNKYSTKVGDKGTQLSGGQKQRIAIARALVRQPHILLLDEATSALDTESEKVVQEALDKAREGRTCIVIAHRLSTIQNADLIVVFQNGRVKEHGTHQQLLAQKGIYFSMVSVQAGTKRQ

inhibition at 10 µM [2]: 84%
inhibition at 10 µM [3]: 78%
Structure (SMILES): CCCN(C(=O)CCCCCC(=O)N(CCC)[C@H]1CC2=CC(=O)O[C@@]23C[C@@H]1N1CCCC[C@@H]13)[C@H]1CC2=CC(=O)O[C@@]23C[C@@H]1N1CCCC[C@@H]13
Activity [1]: Toxic
Activity [4]: Toxic

inhibition (INH) [10]: Active
inhibition at 10 µM [2]: 78%
inhibition (INH) [12]: Active
inhibition (INH) [13]: Active
Activity [14]: Active
inhibition (INH) [17]: Active
fold change (FC) [20]: 126.4
inhibition (INH) [21]: Active
inhibition at 10 µM [3]: 85%
inhibition (INH) [25]: Active
inhibition (INH) [29]: Active
fold change (FC) [32]: 231
inhibition (INH) [35]: Active
fold change (FC) [36]: 10.4
Structure (SMILES): CCCN(C(=O)CCCCCCC(=O)N(CCC)[C@H]1CC2=CC(=O)O[C@]23C[C@H]1N1CCCC[C@H]13)[C@H]1CC2=CC(=O)O[C@]23C[C@H]1N1CCCC[C@H]13
Activity [5]: Toxic
viability at 72 h, 50 µM [6]: 100%
Activity [7]: Toxic
inhibition (INH) [8]: Tde
Activity [9]: Non-Toxic
Activity (Homo sapiens [11]): inactive
Activity [15]: Non-Toxic
viability at 48 h, 10 µM [16]: > 90%
inhibition (INH) [18]: Tde
Activity [19]: Non-Toxic
Activity [22]: Non-Toxic
Activity (Homo sapiens [23]): inactive
inhibition (Homo sapiens [24]): inactive
Activity [26]: Non-Toxic
Activity [27]: Non-Toxic
inhibition (INH) [28]: Tde
inhibition (Homo sapiens [30]): Active
Activity (MCF7): Non-Toxic
viability at 48 h, 10 µM [31]: > 90%
Activity [33]: Non-Toxic
Activity [34]: Non-Toxic
Activity (HepG2): Non-Toxic
Activity [37]: Non-Toxic
Activity [38]: Non-Toxic

Structure (SMILES): CCCN(C(=O)CCCCC(=O)N(CCC)[C@H]1CC2=CC(=O)O[C@]23C[C@H]1N1CCCC[C@H]13)[C@H]1CC2=CC(=O)O[C@]23C[C@H]1N1CCCC[C@H]13
Activity [1]: Toxic
Activity [4]: Toxic
inhibition (INH) [39]: Active
inhibition (INH) [40]: Active

Structure (SMILES): COc1ccc(CCN(C)CCCC(C#N)(c2ccc(OC)c(OC)c2)C(C)C)cc1OC (stereo not given) [VERAPAMIL]
inhibition at 10 µM [2]: 70%
inhibition at 10 µM [3]: 84%

Structure (SMILES): CCCN(C(=O)CCCCCC(=O)N(CCC)[C@H]1CC2=CC(=O)O[C@]23C[C@H]1N1CCCC[C@H]13)[C@H]1CC2=CC(=O)O[C@]23C[C@H]1N1CCCC[C@H]13
Activity [1]: Toxic
Activity [4]: Toxic
